Reference: patent US5840684A, “Glycopeptide antibiotic derivatives” (Eli Lilly and Company, priority 1995, dated 1998)
Values after ≈ are worked out from the molar mass of the structure shown.

Experiments:
[1] = tested on: Staphylococcus aureus S13E; assay type: cell-based
Description: (§1) The MIC's were determined using a standard broth micro-dilution assay.

[2] = tested on: Staphylococcus aureus SA1199B; assay type: cell-based
Description: as §1

[3] = tested on: Entercoccus faecium 180-1; assay: broth micro-dilution MIC; assay type: cell-based
Description: as §1

Entercoccus faecium 276 = assay: broth micro-dilution MIC; assay type: cell-based
Description: as §1

[4] = tested on: Staphylococcus aureus 446; assay: broth micro-dilution MIC; assay type: cell-based
Description: as §1

[5] = tested on: Staphylococcus aureus 447; assay: broth micro-dilution MIC; assay type: cell-based
Description: as §1

[6] = tested on: Staphylococcus aureus 489; assay: broth micro-dilution MIC; assay type: cell-based
Description: as §1

[7] = tested on: Staphylococcus aureus 491; assay: broth micro-dilution MIC; assay type: cell-based
Description: as §1

[8] = tested on: Staphylococcus aureus SA1199A; assay: broth micro-dilution MIC; assay type: cell-based
Description: as §1

[9] = tested on: Staphylococcus aureus SA1199; assay: broth micro-dilution MIC; assay type: cell-based
Description: as §1

[10] = tested on: Staphylococcus aureus X400; assay: broth micro-dilution MIC; assay type: cell-based
Description: as §1

[11] = tested on: Staphylococcus aureus X778; assay: broth micro-dilution MIC; assay type: cell-based
Description: as §1

[12] = tested on: Streptococcus pyogenes C203; assay: broth micro-dilution MIC; assay type: cell-based
Description: as §1

Entercoccus faecium 180 = assay: broth micro-dilution MIC; assay type: cell-based; settings: Entercoccus faecium 180
Description: (§2) The formula I compounds have in vitro and in vivo activity against Gram-positive pathogenic bacteria. The MIC's were determined using a standard broth micro-dilution assay.

Entercoccus faecium 2041 = assay: broth micro-dilution MIC; assay type: cell-based; settings: Entercoccus faecium 2041
Description: as §2

[13] = tested on: Enterococcus gallinarum 245; assay: broth micro-dilution MIC; assay type: cell-based; settings: Enterococcus gallinarum 245
Description: as §2

[14] = tested on: Haemophilus influenzae RD; assay: broth micro-dilution MIC; assay type: cell-based; settings: Haemophilus influenzae RD
Description: as §2

[15] = tested on: Staphylococcus epidermidis 270; assay: broth micro-dilution MIC; assay type: cell-based
Description: as §2

[16] = tested on: Staphylococcus haemolyticus 105; assay: broth micro-dilution MIC; assay type: cell-based
Description: as §2

[17] = tested on: Staphylococcus haemolyticus 415; assay: broth micro-dilution MIC; assay type: cell-based
Description: as §2

[18] = tested on: Streptococcus pneumoniae P1; assay: broth micro-dilution MIC; assay type: cell-based
Description: as §2

[19] = tested on: vancomycin-resistant enterococci; assay: broth micro-dilution, mean geometric MIC; assay type: cell-based, Enterococcus faecium and Enterococcus faecalis; settings: enterococci, 24-hour incubation
[20] = tested on: vancomycin-susceptible enterococci; assay: broth micro-dilution, mean geometric MIC; assay type: cell-based, Enterococcus faecium and Enterococcus faecalis; settings: enterococci, 24-hour incubation

| SMILES | MIC [1] | MIC [2] | MIC [3] | MIC (Entercoccus faecium 276) | MIC [4] | MIC [5] | MIC [6] | MIC [7] | MIC [8] | MIC [9] | MIC [10] | MIC [11] | MIC [12] | MIC (Entercoccus faecium 180) [µg/mL] | MIC (Entercoccus faecium 2041) | MIC [13] | MIC [14] [µg/mL] | MIC [15] | MIC [16] | MIC [17] | other results |
| --- | --- | --- | --- | --- | --- | --- | --- | --- | --- | --- | --- | --- | --- | --- | --- | --- | --- | --- | --- | --- | --- |
| CNC(CC(C)C)C(=O)NC1C(=O)NC(CC(N)=O)C(=O)NC2C(=O)NC3C(=O)NC(C(=O)NC(C(=O)O)c4cc(O)cc(O)c4-c4cc3ccc4O)C(OC3CC(C)(N)C(O)C(C)O3)c3ccc(c(Cl)c3)Oc3cc2cc(c3OC2OC(CO)C(O)C(O)C2OC2CC(C)(NCCCCCCCCCC#Cc3ccccc3)C(O)C(C)O2)Oc2ccc(cc2Cl)C1O (centres unmarked) [Compound 236] | 4 µg/mL (≈ 2.2 µM) | 4 µg/mL (≈ 2.2 µM) | 1 µg/mL (≈ 0.55 µM) | 2 µg/mL (≈ 1.1 µM) | 1 µg/mL (≈ 0.55 µM) | 4 µg/mL (≈ 2.2 µM) | 4 µg/mL (≈ 2.2 µM) | 4 µg/mL (≈ 2.2 µM) | 2 µg/mL (≈ 1.1 µM) | 4 µg/mL (≈ 2.2 µM) | 2 µg/mL (≈ 1.1 µM) | 2 µg/mL (≈ 1.1 µM) | ≤ 0.06 µg/mL | 1 (≈ 0.55 µM) | 1 µg/mL (≈ 0.55 µM) | 4 µg/mL (≈ 2.2 µM) | 32 (≈ 17.6 µM) | 2 µg/mL (≈ 1.1 µM) | 4 µg/mL (≈ 2.2 µM) | 4 µg/mL (≈ 2.2 µM) | MIC [18]: ≤ 0.06 µg/mL; mean geometric MIC, Vancomycin Resistant Strains [19]: 1.4 µg/mL; mean geometric MIC, Vancomycin Sensitive Strains [20]: 0.5 µg/mL |
| CNC(CC(C)C)C(=O)NC1C(=O)NC(CC(N)=O)C(=O)NC2C(=O)NC3C(=O)NC(C(=O)NC(C(=O)O)c4cc(O)cc(O)c4-c4cc3ccc4O)C(OC3CC(C)(N)C(O)C(C)O3)c3ccc(c(Cl)c3)Oc3cc2cc(c3OC2OC(CO)C(O)C(O)C2OC2CC(C)(NCc3c4c(cc5ccccc35)CCCC4)C(O)C(C)O2)Oc2ccc(cc2Cl)C1O (centres unmarked) [Compound 156] | 1 µg/mL (≈ 0.56 µM) | 0.5 µg/mL (≈ 0.28 µM) | ≤ 0.06 µg/mL | 2 µg/mL (≈ 1.12 µM) | 2 µg/mL (≈ 1.12 µM) | 1 µg/mL (≈ 0.56 µM) | 1 µg/mL (≈ 0.56 µM) | 1 µg/mL (≈ 0.56 µM) | ≤ 0.06 µg/mL | 1 µg/mL (≈ 0.56 µM) | 2 µg/mL (≈ 1.12 µM) | 1 µg/mL (≈ 0.56 µM) | ≤ 0.06 µg/mL | 1 (≈ 0.56 µM) | 0.5 µg/mL (≈ 0.28 µM) | 2 µg/mL (≈ 1.12 µM) | 2 (≈ 1.12 µM) | 1 µg/mL (≈ 0.56 µM) | 4 µg/mL (≈ 2.24 µM) | 2 µg/mL (≈ 1.12 µM) | MIC [18]: ≤ 0.06 µg/mL; mean geometric MIC, Vancomycin Resistant Strains [19]: 5.7 µg/mL; mean geometric MIC, Vancomycin Sensitive Strains [20]: 0.17 µg/mL |
| CNC(CC(C)C)C(=O)NC1C(=O)NC(CC(N)=O)C(=O)NC2C(=O)NC3C(=O)NC(C(=O)NC(C(=O)O)c4cc(O)cc(O)c4-c4cc3ccc4O)C(OC3CC(C)(N)C(O)C(C)O3)c3ccc(c(Cl)c3)Oc3cc2cc(c3OC2OC(CO)C(O)C(O)C2OC2CC(C)(NCc3ccc(-c4ccccc4)cc3)C(O)C(C)O2)Oc2ccc(cc2)C1O (centres unmarked) [Compound 185] | ≤ .06 µg/mL | ≤ .06 µg/mL | ≤ .06 µg/mL | ≤ .06 µg/mL | ≤ .06 µg/mL | ≤ .06 µg/mL | ≤ .06 µg/mL | ≤ .06 µg/mL | ≤ .06 µg/mL | ≤ .06 µg/mL | ≤ .06 µg/mL | ≤ .06 µg/mL | ≤ .06 µg/mL | 0.125 (≈ 0.0725 µM) | ≤ .06 µg/mL | ≤ .06 µg/mL | 8 (≈ 4.64 µM) | ≤ .06 µg/mL | ≤ .06 µg/mL | ≤ .06 µg/mL | MIC [18]: ≤ .06 µg/mL; mean geometric MIC, Vancomycin Resistant Strains [19]: 4.7 µg/mL; mean geometric MIC, Vancomycin Sensitive Strains [20]: 0.060 µg/mL |
| CNC(CC(C)C)C(=O)NC1C(=O)NC(CC(N)=O)C(=O)NC2C(=O)NC3C(=O)NC(C(=O)NC(C(=O)O)c4cc(O)cc(O)c4-c4cc3ccc4O)C(OC3CC(C)(N)C(O)C(C)O3)c3ccc(c(Cl)c3)Oc3cc2cc(c3OC2OC(CO)C(O)C(O)C2OC2CC(C)(NCCCCCCCCOc3ccc(Oc4ccccc4)cc3)C(O)C(C)O2)Oc2ccc(cc2Cl)C1O (centres unmarked) [Compound 202] | 4 µg/mL (≈ 2.12 µM) | 8 µg/mL (≈ 4.24 µM) | 0.5 µg/mL (≈ 0.265 µM) | 4 µg/mL (≈ 2.12 µM) | 4 µg/mL (≈ 2.12 µM) | 8 µg/mL (≈ 4.24 µM) | 4 µg/mL (≈ 2.12 µM) | 4 µg/mL (≈ 2.12 µM) | 2 µg/mL (≈ 1.06 µM) | 8 µg/mL (≈ 4.24 µM) | 4 µg/mL (≈ 2.12 µM) | 4 µg/mL (≈ 2.12 µM) | ≤ 0.06 µg/mL | 0.5 (≈ 0.265 µM) | 1 µg/mL (≈ 0.529 µM) | 8 µg/mL (≈ 4.24 µM) | 32 (≈ 16.9 µM) | 4 µg/mL (≈ 2.12 µM) | 4 µg/mL (≈ 2.12 µM) | 8 µg/mL (≈ 4.24 µM) | MIC [18]: ≤ 0.06 µg/mL; mean geometric MIC, Vancomycin Resistant Strains [19]: 1.4 µg/mL; mean geometric MIC, Vancomycin Sensitive Strains [20]: 0.76 µg/mL |
| CNC(CC(C)C)C(=O)NC1C(=O)NC(CC(N)=O)C(=O)NC2C(=O)NC3C(=O)NC(C(=O)NC(C(=O)O)c4cc(O)cc(O)c4-c4cc3ccc4O)C(OC3CC(C)(N)C(O)C(C)O3)c3ccc(c(Cl)c3)Oc3cc2cc(c3OC2OC(CO)C(O)C(O)C2OC2CC(C)(NCCCCCCCCOc3ccccc3)C(O)C(C)O2)Oc2ccc(cc2Cl)C1O (centres unmarked) [Compound 195] | 2 µg/mL (≈ 1.11 µM) | 1 µg/mL (≈ 0.557 µM) | ≤ 0.06 µg/mL | 0.25 µg/mL (≈ 0.139 µM) | 0.5 µg/mL (≈ 0.278 µM) | 1 µg/mL (≈ 0.557 µM) | 1 µg/mL (≈ 0.557 µM) | 0.5 µg/mL (≈ 0.278 µM) | ≤ 0.06 µg/mL | 0.5 µg/mL (≈ 0.278 µM) | 2 µg/mL (≈ 1.11 µM) | 0.5 µg/mL (≈ 0.278 µM) | ≤ 0.06 µg/mL | 0.5 (≈ 0.278 µM) | ≤ 0.06 µg/mL | 4 µg/mL (≈ 2.23 µM) | 32 (≈ 17.8 µM) | 0.25 µg/mL (≈ 0.139 µM) | 1 µg/mL (≈ 0.557 µM) | 4 µg/mL (≈ 2.23 µM) | MIC [18]: ≤ 0.06 µg/mL; mean geometric MIC, Vancomycin Resistant Strains [19]: 2.0 µg/mL; mean geometric MIC, Vancomycin Sensitive Strains [20]: 0.042 µg/mL |
| CNC(CC(C)C)C(=O)NC1C(=O)NC(CC(N)=O)C(=O)NC2C(=O)NC3C(=O)NC(C(=O)NC(C(=O)O)c4cc(O)cc(O)c4-c4cc3ccc4O)C(OC3CC(C)(N)C(O)C(C)O3)c3ccc(c(Cl)c3)Oc3cc2cc(c3OC2OC(CO)C(O)C(O)C2OC2CC(C)(NCc3cccc(Oc4cccc(C(F)(F)F)c4)c3)C(O)C(C)O2)Oc2ccc(cc2Cl)C1O (centres unmarked) [Compound 203] | 2 µg/mL (≈ 1.09 µM) | 1 µg/mL (≈ 0.543 µM) | ≤ 0.06 µg/mL | 0.5 µg/mL (≈ 0.271 µM) | 0.5 µg/mL (≈ 0.271 µM) | 1 µg/mL (≈ 0.543 µM) | 0.5 µg/mL (≈ 0.271 µM) | 1 µg/mL (≈ 0.543 µM) | 0.5 µg/mL (≈ 0.271 µM) | 2 µg/mL (≈ 1.09 µM) | 1 µg/mL (≈ 0.543 µM) | 1 µg/mL (≈ 0.543 µM) | ≤ 0.06 µg/mL | 0.125 (≈ 0.0678 µM) | 0.25 µg/mL (≈ 0.136 µM) | 2 µg/mL (≈ 1.09 µM) | 16 (≈ 8.68 µM) | 0.5 µg/mL (≈ 0.271 µM) | 1 µg/mL (≈ 0.543 µM) | 2 µg/mL (≈ 1.09 µM) | MIC [18]: ≤ 0.06 µg/mL; mean geometric MIC, Vancomycin Resistant Strains [19]: 1.0 µg/mL; mean geometric MIC, Vancomycin Sensitive Strains [20]: 0.036 µg/mL |
| CNC(CC(C)C)C(=O)NC1C(=O)NC(CC(N)=O)C(=O)NC2C(=O)NC3C(=O)NC(C(=O)NC(C(=O)O)c4cc(O)cc(O)c4-c4cc3ccc4O)C(OC3CC(C)(N)C(O)C(C)O3)c3ccc(c(Cl)c3)Oc3cc2cc(c3OC2OC(CO)C(O)C(O)C2OC2CC(C)(NCc3ccc(OCCCCCCc4ccccc4)cc3)C(O)C(C)O2)Oc2ccc(cc2Cl)C1O (centres unmarked) [Compound 219] | 8 µg/mL (≈ 4.3 µM) | 8 µg/mL (≈ 4.3 µM) | 1 µg/mL (≈ 0.538 µM) | 2 µg/mL (≈ 1.08 µM) | 8 µg/mL (≈ 4.3 µM) | 8 µg/mL (≈ 4.3 µM) | 8 µg/mL (≈ 4.3 µM) | 4 µg/mL (≈ 2.15 µM) | 1 µg/mL (≈ 0.538 µM) | 4 µg/mL (≈ 2.15 µM) | 8 µg/mL (≈ 4.3 µM) | 8 µg/mL (≈ 4.3 µM) | ≤ 0.06 µg/mL | 1 (≈ 0.538 µM) | 2 µg/mL (≈ 1.08 µM) | 2 µg/mL (≈ 1.08 µM) | 32 (≈ 17.2 µM) | 4 µg/mL (≈ 2.15 µM) | 2 µg/mL (≈ 1.08 µM) | 2 µg/mL (≈ 1.08 µM) | MIC [18]: ≤ 0.06 µg/mL; mean geometric MIC, Vancomycin Resistant Strains [19]: 0.71 µg/mL; mean geometric MIC, Vancomycin Sensitive Strains [20]: 0.044 µg/mL |
